Measurements taken from patent US12435062B2, “Amide compounds and uses thereof” (HUTCHISON MEDIPHARMA LIMITED, priority 2020, dated 2025).
pIC50: −log10 of the molar value.

Key:
[1] = target: Recombinant human CSF1R kinase (Homo sapiens (Human), UniProt P07333); assay type: biochemical; conditions: Z-LYTE Tyr 1 peptide substrate
Protocol: Measurement of CSF1R Kinase Activity at Molecular Level
1. Reagents and materials:
• Z-LYTE™ Tyr 1 peptide substrate: Invitrogen, PV3190; • 5× kinase buffer: Invitrogen, PV3189; • 10 mM ATP: Invitrogen, PV3227; • Development reagent B: Invitrogen, PV3295; • Development buffer: Invitrogen, P3127; • Stopping solution: Invitrogen, P3094; • Recombinant human CSF1R kinase: Invitrogen, PR4598A; • 384 well plate, black: Corning, 3575; Envision: Perkin Elmer. 2. Preparation of reaction solutions
1) 1.33× kinase buffer: 5× kinase buffer was diluted to a 1.33× kinase buffer with ddH2O.
2) Dilution of a 4× test compound: The test compound was diluted in gradient to 4-fold the reaction concentration and the concentration of DMSO was kept at 8%. The final concentration of the compound in reaction was: 1, 0.33, 0.11, 0.037, 0.012, 0.004, 0.0014, 0.00046 μM, and the final concentration of DMSO was 2%.
3) A mixture of kinase/peptide substrate: In 1.33× kinase buffer, the kinase and Z-LYTE™ Tyr 1 peptide substrate were diluted to 0.12 μg/mL and 4 μM, respectively, to prepare a mixture of kinase/peptide substrate. The mixture was mixed gently with a pipette.
4) A phosphorylated peptide substrate solution (PP solution): 0.4 μL of Z-LYTE™ Tyr1 phosphorylated peptide substrate was added to 99.6 μL of 1.33× kinase buffer.
5) ATP solution: 10 mM of ATP was diluted to 760 μM with 1.33× kinase buffer to prepare ATP solution.
6) Development solution: Development reagent B was diluted with Development buffer at a ratio of 1:200.
1) Kinase reaction (10 μL system)
2.5 μL of 4× test compound was added to each reaction well of the 384 plate, and the corresponding volume of 8% DMSO was added to the control well. The plate was placed on ice. 5 μL of a mixture of kinase/peptide substrate, 2.5 μL of kinase buffer and ATP solution were successively added to each well. Three control groups were set up: Group C1 contains only kinase buffer, group C2 contains the mixture of kinase/peptide substrate, kinase buffer and ATP, and group C3 contains 5 μL of PP solution. After adding the reaction components, the 384-well plate was sealed and incubated at 25-30° C. for 1 h in dark.
5 μL of Development solution was added to each well, sealed and incubated at 25-30° C. for another 1 h in dark.
3) Reaction stopping and plate reading
5 μL of stopping solution was added to each well. The Coumarin value (excitation at 400 nm, emission at 445 nm) and Fluorescein value (excitation at 400 nm, emission at 520 nm) were measured, respectively.
ER (emission ratio): Coumarin emission read-out (445 nm)/Fluorescein emission read-out (520 nm); • C3 445 nm: 100% phosphorylated Coumarin emission read-out; • C3 520 nm: 100% phosphorylated Fluorescein emission read-out; • C1 445 nm: 0% phosphorylated Coumarin emission read-out; • C1 520 nm: 0% phosphorylated Fluorescein emission read-out. Inhibition rate % (IR)=[1−% phosphorylation ratetest sample/100% phosphorylation ratecontrol]×100%
% phosphorylation ratetest sample: phosphorylation rate of the test compound; • 100% phosphorylation ratecontrol: phosphorylation rate of C3 control group.
5. IC50 values: calculated by using software XL-Fit™ (version 5.3) supplied by ID Business Solutions (Guildford, UK), which is an additional software to Microsoft Excel.

Ba/F3^BCR-FMS-11 cells = test: Cell proliferation experiment (Ba/F3^BCR-FMS-11, cckit-8); assay type: cell-based, mouse; conditions: Mus musculus, Ba/F3^BCR-FMS-11 cell proliferation
Protocol: Cell Proliferation Experiment
Ba/F3^BCR-FMS-11, mouse primary B lymphocytes stably expressing the BCR-FMS fusion gene. The cells were cultured in an RPMI 1640 medium containing 10% FBS.
(§1) 2. Reagents and instruments
• cckit-8 kit: Dojindo, 9 CK04; • Envision: Perkin Elmer; • Cell culture plate: Facol, 9353027. 3. Experimental steps
The BCR-FMS fusion gene was transfected into Ba/F3 cells, and the cell line Ba/F3^BCR-FMS-11 that stably expresses BCR-FMS and grows depending on CSF-1R was screened. Ba/F3^BCR-FMS-11 cell proliferation experiments is completed by using the Cell Counting kit cckit-8 in a 96-well plate. In a 96-well plate, 5000/well of Ba/F3^BCR-FMS-11 cells were inoculated at 100 μL/well. […] 10 μL of the compound dilutions with the above 8 concentrations were added to the culture cell wells. The culture was incubated in a 37° C. and 5% CO2 cell incubator for 72 hours. 10 μL of Cell Counting kit cckit-8 detection reagent was added to each well, and incubated at 37° C. and 5% CO2 in a cell incubator for another 1 h. The optical density absorption value at 450 nm of each well was detected by using Perkin Elmer Envision instrument.
wherein • Drug-treated well read-out: indicating the optical density signal of a cell well with the test compound treatment. • Cell well read-out: indicating the optical density signal of a cell well not treated with the test compound (only 0.5% DMSO). • Background read-out: indicating the optical density signal of a well with the cell medium. 5. Calculation of IC50: obtained by using XL-Fit 5.3 software. 6. Test results

[2] = target: CSF1R phosphorylation in THP-1 cells (Homo sapiens (Human), UniProt P07333); test: Detection of CSF1R phosphorylation activity at cell level (THP-1, M-CSF stimulated, ELISA); assay type: cell-based; conditions: p-CSF1R ELISA, compound 60 min, 300 ng/mL M-CSF 1 min
Protocol: Detection of CSF1R Phosphorylation Activity at Cell Level
THP-1 (ATCC), human acute monocytic leukemia cells. The cells were cultured in an RPMI 1640 medium containing 10% FBS.
as §1
• Human phosphorylation-CSF1R ELISA kit: R&D, #DYC3268-2; • RPMI 1640 culture solution: GIBCO, 910491; • Human M-CSF recombinant cytokine: R&D, 9216-MC-500; • Cell lysis buffer: Cell Signal, 99803S; • 1×PBS buffer (1 L): 8.0 g of NaCl, 0.2 g of KCl, 3.58 g of Na2HPO4-12H2O, 0.24 g of KH2PO4 were dissolved in 1 L of dd H2O, and the pH was adjusted to 7.4; • Blocking solution: PBS buffer containing 1% BSA; • PBST washing liquid: PBS buffer containing 0.05% Tween-20; • Chromogenic substrate: R&D, #DY999; • 2N H2SO4; • Microwell plate reader: Labsystems Multiskan K3: Thermo; Envision: Perkin Elmer; • ELISA plate: Corning, #9018; • Cell culture plate: Facol, #353027. 3. Treatment of cells and preparation of lysis buffer
THP-1 cells were resuspended in RPMI-1640 culture solution containing 2% FBS, and the culture was added to a 96-well plate at a density of 5×10^4/well, 50 μL/well, and cultured in a cell incubator at 5% CO2 and 37° C. overnight; The test compound was diluted with a serum-free RPMI-1640 medium to 3, 1.1, 0.37, 0.12, 0.04, 0.014, 0.005 and 0.002 μM, and the concentration of DMSO was 5%. 5 μL of the diluted compound was added to the 50 μL cell culture system, the culture was cultured in a 5% CO2, 37° C. cell incubator for 60 min, 300 ng/mL of M-CSF was added to the cells, and the mixture was stimulated in the 37° C. cell incubator for 1 min, added 50 μL of cell lysis buffer, and stored in a refrigerator at −80° C.
100 μL/well of the p-CSF1R capture antibody diluted to 0.8 μg/mL with PBS was added to the ELISA plate, and the plate was coated on a shaker at room temperature overnight. The culture was washed with PBST, and then added blocking solution and incubated at room temperature for 2 h. The culture was washed with PBST, added 90 μL of cell lysis buffer, and incubated on a shaker at 25° C. for 2 h. The plate was washed with PBST three times, added 100 μL of anti-p-tyrosine-HRP detection antibody diluted with 0.1% PBS-BSA diluent, and incubated on a shaker at 25° C. for 2 h. The plate was washed with PBST washing liquid, added 100 μL of chromogenic substrate and incubated at room temperature for 10-20 min. The reaction was stopped by adding 50 μL of 2N H2SO4. The optical density signal (450/570 nm) of each well was detected in Labsystems Multiskan K3 or Envision.
wherein • Drug-treated well read-out: indicating the optical density signal of a cell well with the test compound treatment. • Background read-out: indicating the optical density signal of a well without cells but with cell lysis buffer. • Cell well read-out: indicating the optical density signal of a cell well not treated with the compound. 6. Calculation of IC50: obtained by using XL-Fit 5.3 software. 7. Test results

Sequence of Recombinant human CSF1R kinase (P07333 20-972): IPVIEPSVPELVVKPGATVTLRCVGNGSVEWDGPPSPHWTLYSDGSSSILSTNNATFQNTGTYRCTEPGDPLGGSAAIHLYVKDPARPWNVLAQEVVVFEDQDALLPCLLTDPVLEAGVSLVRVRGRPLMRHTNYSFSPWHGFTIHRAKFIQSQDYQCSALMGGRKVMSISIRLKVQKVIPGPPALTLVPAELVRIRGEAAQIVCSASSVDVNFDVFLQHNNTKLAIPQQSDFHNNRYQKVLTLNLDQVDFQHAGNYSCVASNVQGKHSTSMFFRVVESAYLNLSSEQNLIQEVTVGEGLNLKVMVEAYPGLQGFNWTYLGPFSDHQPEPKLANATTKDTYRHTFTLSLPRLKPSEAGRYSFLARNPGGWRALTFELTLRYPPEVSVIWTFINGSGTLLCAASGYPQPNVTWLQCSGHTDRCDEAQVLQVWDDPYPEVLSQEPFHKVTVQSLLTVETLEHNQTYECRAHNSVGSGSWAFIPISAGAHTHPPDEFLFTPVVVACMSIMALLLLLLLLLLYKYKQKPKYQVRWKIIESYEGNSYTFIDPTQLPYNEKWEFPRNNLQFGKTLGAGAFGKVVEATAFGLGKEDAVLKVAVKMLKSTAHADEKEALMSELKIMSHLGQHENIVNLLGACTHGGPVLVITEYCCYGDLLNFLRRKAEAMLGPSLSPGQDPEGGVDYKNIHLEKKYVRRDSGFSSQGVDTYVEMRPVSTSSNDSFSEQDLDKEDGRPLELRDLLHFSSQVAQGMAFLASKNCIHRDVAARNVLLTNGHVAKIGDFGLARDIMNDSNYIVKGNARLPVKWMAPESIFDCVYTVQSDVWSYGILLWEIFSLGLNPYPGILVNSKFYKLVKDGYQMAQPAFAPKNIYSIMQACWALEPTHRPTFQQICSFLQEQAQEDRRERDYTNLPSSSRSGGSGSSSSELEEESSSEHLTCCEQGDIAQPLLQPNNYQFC
Sequence of CSF1R phosphorylation in THP-1 cells (P07333 20-972): as above

| pIC50 [1] | pIC50 (Ba/F3^BCR-FMS-11 cells; 72 h) | SMILES | also measured |
| --- | --- | --- | --- |
| 6.87 | – | COc1cc(Oc2ccnc(-c3cnn(C)c3)c2)ccc1NC(=O)c1cnc(C)n(C)c1=O [Compound 53] | – |
| 6.92 | – | CC(C)n1ccnc(C(=O)Nc2ccc(Oc3ccnc(-c4cnn(C)c4)c3)cn2)c1=O [Compound 59] | – |
| – | 7.92 | Cn1cc(-c2cc(Oc3ccc(NC(=O)c4cnc(C5CC5)n(C)c4=O)nc3)ccn2)cn1 [Compound 74] | – |
| – | 8.22 | Cn1cc(-c2cc(Oc3ccc(NC(=O)c4cccn(CC(F)(F)F)c4=O)nc3)ccn2)cn1 [Compound 87] | – |
| – | 6.25 | COc1cc(Oc2ccnc(-c3cnn(C)c3)c2)cnc1NC(=O)c1cccn(C(C)C)c1=O [Compound 92, 1-isopropyl-N-(3-methoxy-5-((2-(1-methyl-1H-pyrazol-4-yl)pyridin-4-yl)oxy)pyridin-2-yl)-2-oxo-1,2-dihydropyridine-3-carboxamide] | – |
| – | 6.85 | Cn1cccc(C(=O)Nc2ccc(Oc3ccnc(-c4cnn(CCO)c4)c3)cn2)c1=O [Compound 94, N-(5-((2-(1-(2-hydroxyethyl)-1H-pyrazol-4-yl)pyridin-4-yl)oxy)pyridin-2-yl)-1-methyl-2-oxo-1,2-dihydropyridine-3-carboxamide] | – |
| 6.32 | – | CCN1CCN(c2cc(Oc3ccc(NC(=O)c4cccn(C(C)C)c4=O)nc3)ccn2)CC1 [Compound 98, N-(5-((2-(4-ethylpiperazin-1-yl)pyridin-4-yl)oxy)pyridin-2-yl)-1-isopropyl-2-oxo-1,2-dihydropyridine-3-carboxamide] | – |
| 6.75 | – | Cc1ncc(C(=O)Nc2ccc(Oc3ccnc(-c4cnn(CCN)c4)c3)cn2)c(=O)n1C [Compound 109, N-(5-((2-(1-(2-aminoethyl)-1H-pyrazol-4-yl)pyridin-4-yl)oxy)pyridin-2-yl)-1,2-dimethyl-6-oxo-1,6-dihydropyrimidine-5-carboxamide] | – |
| 6.95 | – | CNCCn1cc(-c2cc(Oc3ccc(NC(=O)c4cnc(C)n(C)c4=O)nc3)ccn2)cn1 [Compound 110] | – |
| 6.33 | – | Cc1ncc(C(=O)Nc2ccc(Oc3ccnc(-c4nccs4)c3)cn2)c(=O)n1C [Compound 119] | – |
| 6.38 | – | Cc1ncc(C(=O)Nc2ccc(Oc3ccnc(C4=CCCCC4)c3)cn2)c(=O)n1C [Compound 121] | – |
| 7.26 | – | Cc1ccc(-c2cc(Oc3ccc(NC(=O)c4cnc(C)n(C)c4=O)nc3)ccn2)o1 [Compound 122] | – |
| – | 6.28 | Cn1cc(-c2cc(Oc3ccc(NC(=O)c4cnc(O)n(C)c4=O)nc3)ccn2)cn1 [Compound 134, 2-hydroxy-1-methyl-N-(5-((2-(1-methyl-1H-pyrazol-4-yl)pyridin-4-yl)oxy)pyridin-2-yl)-6-oxo-1,6-dihydropyrimidine-5-carboxamide] | – |
| 7.92 | 8.15 | Cc1ncc(C(=O)Nc2ccc(Oc3ccnc(-c4cn(C)nc4O)c3)cn2)c(=O)n1C [Compound 135, N-(5-((2-(3-hydroxy-1-methyl-1H-pyrazol-4-yl)pyridin-4-yl)oxy)pyridin-2-yl)-1,2-dimethyl-6-oxo-1,6-dihydropyrimidine-5-carboxamide] | – |

More lines, now with the values behind:

| SMILES | pIC50 [1] | pIC50 (Ba/F3^BCR-FMS-11 cells; 72 h) | also measured |
| --- | --- | --- | --- |
| CC(C)n1c(N(C)C)ccc(C(=O)Nc2ccc(Oc3ccnc(-c4cnn(C)c4)c3)cn2)c1=O [Compound 1, 6-(dimethylamino)-1-isopropyl-N-(5-((2-(1-methyl-1H-pyrazol-4-yl)pyridin-4-yl)oxy)pyridin-2-yl)-2-oxo-1,2-dihydropyridine-3-carboxamide] | 6.66 | – | – |
| CN(C)c1ccc(C(=O)Nc2ccc(Oc3ccnc(-c4cnn(C)c4)c3)cn2)c(=O)n1C [Compound 2, 6-(dimethylamino)-1-methyl-N-(5-((2-(1-methyl-1H-pyrazol-4-yl)pyridin-4-yl)oxy)pyridin-2-yl)-2-oxo-1,2-dihydropyridine-3-carboxamide] | – | – | pIC50 (Ba/F3^BCR-FMS-11 cells; 72 hours): 7.96 |
| COc1ccc(C(=O)Nc2ccc(Oc3ccnc(-c4cnn(C)c4)c3)cn2)c(=O)n1C [Compound 3, 6-methoxy-1-methyl-N-(5-((2-(1-methyl-1H-pyrazol-4-yl)pyridin-4-yl)oxy)pyridin-2-yl)-2-oxo-1,2-dihydropyridine-3-carboxamide] | 8.30 | 7.92 | pIC50 [2]: 7.20 |
| Cn1cc(Nc2cc(Oc3cnc(NC(=O)c4cccn(C)c4=O)c(F)c3)ccn2)cn1 [Compound 4, N-(3-fluoro-5-((2-((1-methyl-1H-pyrazol-4-yl)amino)pyridin-4-yl)oxy)pyridin-2-yl)-1-methyl-2-oxo-1,2-dihydropyridine-3-carboxamide] | 7.18 | 7.22 | pIC50 [2]: 7.55 |
| Cc1ncc(C(=O)Nc2ccc(Oc3cc(-c4cnn(C)c4)ncn3)cn2)c(=O)n1C [Compound 5, 1,2-dimethyl-N-(5-((6-(1-methyl-1H-pyrazol-4-yl)pyrimidin-4-yl)oxy)pyridin-2-yl)-6-oxo-1,6-dihydropyrimidine-5-carboxamide] | 7.66 | 7.33 | pIC50 [2]: 7.96 |
| CC(C)n1cccc(C(=O)Nc2ccc(Oc3ccnc(-c4cnn(C)c4)n3)cn2)c1=O [Compound 6, 1-isopropyl-N-(5-((2-(1-methyl-1H-pyrazol-4-yl)pyrimidin-4-yl)oxy)pyridin-2-yl)-2-oxo-1,2-dihydropyridine-3-carboxamide] | 8.15 | 7.82 | pIC50 [2]: 7.68 |
| Cc1ncc(C(=O)Nc2ccc(Oc3ccnc(-c4cnn(C)c4)n3)cn2)c(=O)n1C [Compound 7, 1,2-dimethyl-N-(5-((2-(1-methyl-1H-pyrazol-4-yl)pyrimidin-4-yl)oxy)pyridin-2-yl)-6-oxo-1,6-dihydropyrimidine-5-carboxamide] | 7.17 | 7.41 | pIC50 [2]: 7.60 |
| Cc1ncc(C(=O)Nc2ccc(Oc3ccnc(-c4cnn(CCN(C)C)c4)c3)cn2)c(=O)n1C [Compound 14] | – | 7.36 | – |
| Cc1cc(Oc2ccnc(-c3cnn(C)c3)c2)ccc1NC(=O)c1cccn(C(C)C)c1=O [Compound 19] | 6.56 | – | – |
| Cn1cc(-c2cc(Oc3ccc(NC(=O)c4cnc5ccccn5c4=O)nc3)ccn2)cn1 [Compound 26] | – | 8.00 | – |
| Cn1cccc(C(=O)Nc2ccc(Oc3ccnc(-n4cncn4)c3)cn2)c1=O [Compound 29] | 6.76 | – | – |
| Cc1ncc(C(=O)Nc2ccc(Oc3ccnc(-c4cncn4C)c3)cn2)c(=O)n1C [Compound 31] | 6.16 | – | – |
| Cc1cc(Nc2cc(Oc3ccc(NC(=O)c4cnc(C)n(C)c4=O)nc3)ccn2)ccn1 [Compound 35] | 6.95 | – | – |
| Cn1cccc(C(=O)Nc2ccc(Oc3ccnc(-n4cccn4)c3)cn2)c1=O [Compound 37] | 6.77 | – | – |
| Cn1cc(-c2cc(Oc3ccc(NC(=O)c4cn(C)c(=O)n(C)c4=O)nc3)ccn2)cn1 [Compound 40] | – | 7.34 | – |
